In PubChem BioAssay (NCI):
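Briefly, cells in 96-well plates were exposed to five compound concentrations for 48 h, and endpoints were estimated by linear interpolation. Definition used: TGI = concentration required for complete inhibition of growth.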

How the values were obtained:
Experiment in all cases: inhibition of tumour cell growth, NCI panel, 48 h
[1] = test system: DMS 273 small cell lung
[2] = test system: SK-MEL-2 melanoma
[3] = test system: K-562 leukemia
[4] = test system: OVCAR-8 ovarian
[5] = test system: U251 CNS
[6] = test system: DLD-1 colon
[7] = test system: SN12C renal
[8] = test system: 786-0 renal
[9] = test system: UACC-62 melanoma
[10] = test system: TK-10 renal
[11] = test system: SK-MEL-5 melanoma
[12] = test system: KM12 colon
[13] = test system: UACC-257 melanoma
[14] = test system: UO-31 renal
[15] = test system: NCI-H460 lung
[16] = test system: LOX IMVI melanoma
[17] = test system: HOP-92 NSCLC
[18] = test system: RPMI-8226 leukemia
[19] = test system: KM20L2 colon
[20] = test system: HOP-62 NSCLC
[21] = test system: MOLT-4 leukemia
[22] = test system: SNB-75 CNS
[23] = test system: A498 renal
[24] = test system: HT29 colon
[25] = test system: SNB-78 CNS
[26] = test system: SK-MEL-28 melanoma
[27] = test system: HL-60(TB) leukemia
[28] = test system: XF 498 CNS
[29] = test system: OVCAR-4 ovarian
[30] = test system: CAKI-1 renal
[31] = test system: CCRF-CEM leukemia
[32] = test system: SR leukemia
[33] = test system: M19-MEL melanoma
[34] = test system: M14 melanoma
[35] = test system: OVCAR-3 ovarian
[36] = test system: HCT-116 colon
[37] = test system: SK-OV-3 ovarian
[38] = test system: NCI-H226 lung
[39] = test system: HCT-15 colon
[40] = test system: A549 NSCLC
[41] = test system: NCI-H522 lung
[42] = test system: SF-268 CNS
[43] = test system: SW-620 colon
[44] = test system: EKVX NSCLC
[45] = test system: ACHN renal
[46] = test system: SNB-19 CNS
[47] = test system: COLO 205 colon
[48] = test system: RXF 393 renal
[49] = test system: LXFL 529 NSCLC
[50] = test system: SF-295 CNS
[51] = test system: MALME-3M melanoma
[52] = test system: OVCAR-5 ovarian
[53] = test system: HCC-2998 colon
[54] = test system: SF-539 CNS
[55] = test system: HOP-18 NSCLC
[56] = test system: DMS 114 small cell lung
[57] = test system: NCI-H23 lung
[58] = test system: IGROV1 ovarian

## Cc1c(O)c(=O)ccn1C1OC(CO)C(O)C1O (centres undefined)
[1]
  TGI: > 100 µM
[2]
  TGI: > 100 µM
[3]
  TGI: > 100 µM
[4]
  TGI: > 100 µM
[5]
  TGI: > 100 µM
[6]
  TGI: > 100 µM
[7]
  TGI: > 100 µM
[8]
  TGI: > 100 µM
[9]
  TGI: > 100 µM
[10]
  TGI: > 100 µM
[11]
  TGI: > 100 µM
[12]
  TGI: > 100 µM
[13]
  TGI: > 100 µM
[14]
  TGI: > 100 µM
[15]
  TGI: > 100 µM
[16]
  TGI: > 100 µM
[17]
  TGI: > 100 µM
[18]
  TGI: > 100 µM
[19]
  TGI: > 100 µM
[20]
  TGI: > 100 µM
[21]
  TGI: > 100 µM
[22]
  TGI: > 100 µM
[23]
  TGI: > 100 µM
[24]
  TGI: > 100 µM
[25]
  TGI: > 100 µM
[26]
  TGI: > 100 µM
[27]
  TGI: 56.3 µM
[28]
  TGI: > 100 µM
[29]
  TGI: > 100 µM
[30]
  TGI: > 100 µM
[31]
  TGI: > 100 µM
[32]
  TGI: > 100 µM
[33]
  TGI: > 100 µM
[34]
  TGI: > 100 µM
[35]
  TGI: > 100 µM
[36]
  TGI: > 100 µM
[37]
  TGI: > 100 µM
[38]
  TGI: > 100 µM
[39]
  TGI: > 100 µM
[40]
  TGI: > 100 µM
[41]
  TGI: > 100 µM
[42]
  TGI: > 100 µM
[43]
  TGI: > 100 µM
[44]
  TGI: > 100 µM
[45]
  TGI: > 100 µM
[46]
  TGI: > 100 µM
[47]
  TGI: > 100 µM
[48]
  TGI: > 100 µM
[49]
  TGI: > 100 µM
[50]
  TGI: > 100 µM
[51]
  TGI: > 100 µM
[52]
  TGI: > 100 µM

## Cc1ccc(NS(=O)(=O)c2cc(C(C)(C)C)ccc2OCCOCCOCCOc2ccc(C(C)(C)C)cc2S(=O)(=O)Nc2ccc(C)cc2)cc1
[1]
  TGI: > 100 µM
[2]
  TGI: > 100 µM
[3]
  TGI: > 100 µM
[4]
  TGI: > 100 µM
[5]
  TGI: > 100 µM
[6]
  TGI: > 100 µM
[7]
  TGI: > 100 µM
[8]
  TGI: > 100 µM
[9]
  TGI: > 100 µM
[10]
  TGI: > 100 µM
[11]
  TGI: > 100 µM
[12]
  TGI: > 100 µM
[13]
  TGI: > 100 µM
[14]
  TGI: > 100 µM
[15]
  TGI: > 100 µM
[53]
  TGI: > 100 µM
[16]
  TGI: > 100 µM
[17]
  TGI: > 100 µM
[54]
  TGI: > 100 µM
[55]
  TGI: > 100 µM
[20]
  TGI: > 100 µM
[21]
  TGI: > 100 µM
[22]
  TGI: > 100 µM
[23]
  TGI: > 100 µM
[24]
  TGI: > 100 µM
[25]
  TGI: > 100 µM
[26]
  TGI: > 100 µM
[27]
  TGI: > 100 µM
[29]
  TGI: > 100 µM
[30]
  TGI: > 100 µM
[31]
  TGI: > 100 µM
[33]
  TGI: > 100 µM
[34]
  TGI: > 100 µM
[35]
  TGI: > 100 µM
[36]
  TGI: > 100 µM
[56]
  TGI: > 100 µM
[37]
  TGI: > 100 µM
[57]
  TGI: > 100 µM
[38]
  TGI: > 100 µM
[39]
  TGI: > 100 µM
[40]
  TGI: > 100 µM
[42]
  TGI: > 100 µM
[43]
  TGI: > 100 µM
[44]
  TGI: > 100 µM
[45]
  TGI: > 100 µM
[46]
  TGI: > 100 µM
[47]
  TGI: > 100 µM
[48]
  TGI: > 100 µM
[50]
  TGI: > 100 µM
[58]
  TGI: > 100 µM
[51]
  TGI: > 100 µM
[52]
  TGI: > 100 µM
